Values after ≈ are worked out from the molar mass of the structure shown. Values belong to the compound of their own block, whether it stands above or below them.
Tests used:
Trypanosoma cruzi = test: Antiprotozoal activity against Trypanosoma cruzi Tulahuen C4 in rat L6 cells; assay type: functional, organism-based
Plasmodium falciparum = test: Antimalarial activity against Plasmodium falciparum K1 in human erythrocytes by [3H]hypoxanthine uptake; assay type: functional, organism-based
[1] = test system: Trypanosoma brucei rhodesiense; test: Antiprotozoal activity against Trypanosoma brucei rhodesiense STIB900; assay type: functional, organism-based
Leishmania donovani = test: Antiprotozoal activity against Leishmania donovani MHOM-ET-67/L82 in mouse peritoneal macrophages; assay type: functional, organism-based
L6 = test: Cytotoxicity against rat L6 cells; assay type: cell-based

Compound: COc1cccc2oc3cc4c(c(O)c3c(=O)c12)C1CCCC(C)(O4)O1 (stereo unspecified) [CHAETOXANTHONE B]
IC50 (Trypanosoma cruzi): 7.1 µg/mL (≈ 20 µM) | IC50 (Plasmodium falciparum): 0.5 µg/mL (≈ 1.41 µM) | IC50 [1]: 9.3 µg/mL (≈ 26.2 µM) | IC50 (Leishmania donovani): 3.4 µg/mL (≈ 9.59 µM) | IC50 (L6): > 90 µg/mL

Compound: COc1cccc2oc3c(Cl)c(O)c([C@H]4CCC[C@@H](C)O4)c(O)c3c(=O)c12 [CHAETOXANTHONE C]
IC50 (Trypanosoma cruzi): 1.5 µg/mL (≈ 3.84 µM) | IC50 (Plasmodium falciparum): 4 µg/mL (≈ 10.2 µM) | IC50 [1]: 42.6 µg/mL (≈ 109 µM) | IC50 (Leishmania donovani): 3.1 µg/mL (≈ 7.93 µM) | IC50 (L6): 46.7 µg/mL (≈ 119 µM)

IC50 (Trypanosoma cruzi): 0.317 µg/mL (≈ 1.22 µM)
Compound: O=C(Cn1ccnc1[N+](=O)[O-])NCc1ccccc1 [BENZNIDAZOLE]

Compound: COc1cccc2oc3cc4c(c(O)c3c(=O)c12)[C@@H]1C[C@@H](O)C[C@](C)(O4)O1 [CHAETOXANTHONE A]
IC50 (Trypanosoma cruzi): > 10 µg/mL | IC50 (Plasmodium falciparum): 3.5 µg/mL (≈ 9.45 µM) | IC50 [1]: 4.7 µg/mL (≈ 12.7 µM) | IC50 (Leishmania donovani): 5.3 µg/mL (≈ 14.3 µM) | IC50 (L6): 59.1 µg/mL (≈ 160 µM)
